Laboratory results as given in PubChem BioAssay (NCI).
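Test compounds were applied to cells in 96-well plates for 48 hours at 5 doses. GI50: concentration for 50% inhibition of growth. Definition used: TGI = concentration required for complete inhibition of growth.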

Assays:
Test in all cases: inhibition of tumour cell growth, NCI panel, 48 h
HOP-92 NSCLC = tested on: HOP-92 NSCLC
A498 renal = tested on: A498 renal
CAKI-1 renal = tested on: CAKI-1 renal
HL-60(TB) leukemia = tested on: HL-60(TB) leukemia
HOP-62 NSCLC = tested on: HOP-62 NSCLC
T-47D breast = tested on: T-47D breast
NCI-H460 lung = tested on: NCI-H460 lung
HCT-116 colon = tested on: HCT-116 colon
SNB-19 CNS = tested on: SNB-19 CNS
RXF 393 renal = tested on: RXF 393 renal
U251 CNS = tested on: U251 CNS
SF-295 CNS = tested on: SF-295 CNS
OVCAR-5 ovarian = tested on: OVCAR-5 ovarian
BT-549 breast = tested on: BT-549 breast
HT29 colon = tested on: HT29 colon
SK-MEL-2 melanoma = tested on: SK-MEL-2 melanoma
DU-145 prostate = tested on: DU-145 prostate
A549 NSCLC = tested on: A549 NSCLC
SF-539 CNS = tested on: SF-539 CNS
MALME-3M melanoma = tested on: MALME-3M melanoma
COLO 205 colon = tested on: COLO 205 colon
HS 578T breast = tested on: HS 578T breast
UACC-62 melanoma = tested on: UACC-62 melanoma
OVCAR-3 ovarian = tested on: OVCAR-3 ovarian
HCC-2998 colon = tested on: HCC-2998 colon
NCI/ADR-RES ovarian = tested on: NCI/ADR-RES ovarian
M14 melanoma = tested on: M14 melanoma
HCT-15 colon = tested on: HCT-15 colon
SK-MEL-28 melanoma = tested on: SK-MEL-28 melanoma
786-0 renal = tested on: 786-0 renal
MDA-MB-231 breast = tested on: MDA-MB-231 breast
UO-31 renal = tested on: UO-31 renal
SK-OV-3 ovarian = tested on: SK-OV-3 ovarian
MCF7 breast = tested on: MCF7 breast
NCI-H23 lung = tested on: NCI-H23 lung
SW-620 colon = tested on: SW-620 colon
OVCAR-8 ovarian = tested on: OVCAR-8 ovarian
NCI-H226 lung = tested on: NCI-H226 lung
SK-MEL-5 melanoma = tested on: SK-MEL-5 melanoma
EKVX NSCLC = tested on: EKVX NSCLC
K-562 leukemia = tested on: K-562 leukemia
MDA-N = tested on: MDA-N
PC-3 prostate = tested on: PC-3 prostate
RPMI-8226 leukemia = tested on: RPMI-8226 leukemia
NCI-H522 lung = tested on: NCI-H522 lung
IGROV1 ovarian = tested on: IGROV1 ovarian
MDA-MB-435 = tested on: MDA-MB-435
SNB-75 CNS = tested on: SNB-75 CNS
SF-268 CNS = tested on: SF-268 CNS
LOX IMVI melanoma = tested on: LOX IMVI melanoma
UACC-257 melanoma = tested on: UACC-257 melanoma
MOLT-4 leukemia = tested on: MOLT-4 leukemia
CCRF-CEM leukemia = tested on: CCRF-CEM leukemia
SN12C renal = tested on: SN12C renal
ACHN renal = tested on: ACHN renal
KM12 colon = tested on: KM12 colon
TK-10 renal = tested on: TK-10 renal
OVCAR-4 ovarian = tested on: OVCAR-4 ovarian
SR leukemia = tested on: SR leukemia

CC[C@@]1(O)C(=O)OCc2c1cc1n(c2=O)Cc2c-1nc1ccccc1c2CC[Si](C)(C)C
TGI (HOP-92 NSCLC): > 100 µM
TGI (A498 renal): 0.315 µM
TGI (CAKI-1 renal): 0.207 µM
TGI (HL-60(TB) leukemia): > 100 µM
TGI (HOP-62 NSCLC): 0.458 µM
TGI (T-47D breast): > 27.7 µM
TGI (NCI-H460 lung): < 0.0335 µM
TGI (HCT-116 colon): 0.116 µM
TGI (SNB-19 CNS): > 100 µM
TGI (RXF 393 renal): 0.371 µM
TGI (U251 CNS): 0.103 µM
TGI (SF-295 CNS): 0.0544 µM
TGI (OVCAR-5 ovarian): 6.59 µM
TGI (BT-549 breast): > 100 µM
TGI (HT29 colon): > 40.6 µM
TGI (SK-MEL-2 melanoma): 0.484 µM
TGI (DU-145 prostate): > 100 µM
TGI (A549 NSCLC): 7.61 µM
TGI (SF-539 CNS): 3.32 µM
TGI (MALME-3M melanoma): 0.155 µM
TGI (COLO 205 colon): 14.2 µM
TGI (HS 578T breast): > 100 µM
TGI (UACC-62 melanoma): 0.176 µM
TGI (OVCAR-3 ovarian): 1.4 µM
TGI (HCC-2998 colon): 0.713 µM
TGI (NCI/ADR-RES ovarian): > 100 µM
TGI (M14 melanoma): 0.0155 µM
TGI (HCT-15 colon): > 100 µM
TGI (SK-MEL-28 melanoma): > 100 µM
TGI (786-0 renal): < 0.0266 µM
TGI (MDA-MB-231 breast): > 53.9 µM
TGI (UO-31 renal): 0.056 µM
TGI (SK-OV-3 ovarian): 14 µM
TGI (MCF7 breast): > 100 µM
TGI (NCI-H23 lung): 0.0213 µM
TGI (SW-620 colon): > 100 µM
TGI (OVCAR-8 ovarian): > 100 µM
TGI (NCI-H226 lung): < 0.0467 µM
TGI (SK-MEL-5 melanoma): < 0.0425 µM
TGI (EKVX NSCLC): > 100 µM
TGI (K-562 leukemia): > 100 µM
TGI (MDA-N): > 100 µM
TGI (PC-3 prostate): > 56.9 µM
TGI (RPMI-8226 leukemia): 0.834 µM
TGI (NCI-H522 lung): 1.55 µM
TGI (IGROV1 ovarian): > 100 µM
TGI (MDA-MB-435): > 100 µM

C(=C1c2ccccc2-c2ccccc21)c1ccccn1
GI50 (HOP-92 NSCLC): 7.43 µM
TGI (HOP-92 NSCLC): 74.5 µM
GI50 (SNB-75 CNS): 16 µM
TGI (SNB-75 CNS): > 100 µM
GI50 (A498 renal): 3.51 µM
TGI (A498 renal): 23.7 µM
GI50 (SF-268 CNS): 12.4 µM
TGI (SF-268 CNS): 57.7 µM
GI50 (CAKI-1 renal): 3.23 µM
TGI (CAKI-1 renal): 19.6 µM
GI50 (HL-60(TB) leukemia): 4.52 µM
TGI (HL-60(TB) leukemia): 38.5 µM
GI50 (HOP-62 NSCLC): 6.61 µM
TGI (HOP-62 NSCLC): 60.8 µM
GI50 (LOX IMVI melanoma): 8.52 µM
TGI (LOX IMVI melanoma): 25.8 µM
GI50 (T-47D breast): 5.03 µM
TGI (T-47D breast): 50.9 µM
GI50 (NCI-H460 lung): 5.87 µM
TGI (NCI-H460 lung): 23 µM
GI50 (HCT-116 colon): 5.07 µM
TGI (HCT-116 colon): 24.6 µM
GI50 (UACC-257 melanoma): 20.1 µM
TGI (UACC-257 melanoma): > 100 µM
GI50 (SNB-19 CNS): 14 µM
TGI (SNB-19 CNS): > 100 µM
GI50 (RXF 393 renal): 7.58 µM
TGI (RXF 393 renal): 24.1 µM
GI50 (U251 CNS): 6.22 µM
TGI (U251 CNS): 70.9 µM
GI50 (SF-295 CNS): 1.57 µM
TGI (SF-295 CNS): 5.97 µM
GI50 (OVCAR-5 ovarian): 21.8 µM
TGI (OVCAR-5 ovarian): > 100 µM
GI50 (BT-549 breast): 8.85 µM
TGI (BT-549 breast): 53.1 µM
GI50 (MOLT-4 leukemia): 11.8 µM
TGI (MOLT-4 leukemia): > 100 µM
GI50 (HT29 colon): 3.56 µM
TGI (HT29 colon): 16.7 µM
GI50 (SK-MEL-2 melanoma): 12.7 µM
TGI (SK-MEL-2 melanoma): 43 µM
GI50 (DU-145 prostate): 16.1 µM
TGI (DU-145 prostate): 44.9 µM
GI50 (A549 NSCLC): 7.69 µM
TGI (A549 NSCLC): 49.5 µM
GI50 (SF-539 CNS): 11.7 µM
TGI (SF-539 CNS): 50.2 µM
GI50 (MALME-3M melanoma): 3.61 µM
TGI (MALME-3M melanoma): 27 µM
GI50 (COLO 205 colon): 8.56 µM
TGI (COLO 205 colon): 29.5 µM
GI50 (HS 578T breast): 6.21 µM
TGI (HS 578T breast): 28.5 µM
GI50 (UACC-62 melanoma): 5.8 µM
TGI (UACC-62 melanoma): > 100 µM
GI50 (OVCAR-3 ovarian): 3.66 µM
TGI (OVCAR-3 ovarian): 15.9 µM
GI50 (HCC-2998 colon): 13 µM
TGI (HCC-2998 colon): 46.3 µM
GI50 (NCI/ADR-RES ovarian): 3.86 µM
TGI (NCI/ADR-RES ovarian): 31 µM
GI50 (M14 melanoma): 4.06 µM
TGI (M14 melanoma): 18.2 µM
GI50 (HCT-15 colon): 6.21 µM
TGI (HCT-15 colon): 49.3 µM
GI50 (SK-MEL-28 melanoma): 8.12 µM
TGI (SK-MEL-28 melanoma): 73 µM
GI50 (CCRF-CEM leukemia): 7.8 µM
TGI (CCRF-CEM leukemia): 46 µM
GI50 (786-0 renal): 14.7 µM
TGI (786-0 renal): 29.8 µM
GI50 (MDA-MB-231 breast): 12.3 µM
TGI (MDA-MB-231 breast): 39.8 µM
GI50 (UO-31 renal): 8.64 µM
TGI (UO-31 renal): 38.6 µM
GI50 (SN12C renal): 12.1 µM
TGI (SN12C renal): > 100 µM
GI50 (SK-OV-3 ovarian): 13.1 µM
TGI (SK-OV-3 ovarian): 64.9 µM
GI50 (MCF7 breast): 2.71 µM
TGI (MCF7 breast): 21.3 µM
GI50 (NCI-H23 lung): 10.3 µM
TGI (NCI-H23 lung): 96.7 µM
GI50 (SW-620 colon): 4.03 µM
TGI (SW-620 colon): 49.4 µM
GI50 (OVCAR-8 ovarian): 15.6 µM
TGI (OVCAR-8 ovarian): 77.8 µM
GI50 (NCI-H226 lung): 14.2 µM
TGI (NCI-H226 lung): > 100 µM
GI50 (ACHN renal): 26.6 µM
TGI (ACHN renal): > 100 µM
GI50 (SK-MEL-5 melanoma): 11.5 µM
TGI (SK-MEL-5 melanoma): 26.5 µM
GI50 (KM12 colon): 3.6 µM
TGI (KM12 colon): 14.2 µM
GI50 (EKVX NSCLC): 5.85 µM
TGI (EKVX NSCLC): 38.3 µM
GI50 (K-562 leukemia): 3.93 µM
TGI (K-562 leukemia): > 100 µM
GI50 (TK-10 renal): 19 µM
TGI (TK-10 renal): 57.3 µM
GI50 (OVCAR-4 ovarian): 15.3 µM
TGI (OVCAR-4 ovarian): > 100 µM
GI50 (PC-3 prostate): 22.7 µM
TGI (PC-3 prostate): > 100 µM
GI50 (RPMI-8226 leukemia): 16.2 µM
TGI (RPMI-8226 leukemia): > 100 µM
GI50 (SR leukemia): 3.76 µM
TGI (SR leukemia): 38.3 µM
GI50 (NCI-H522 lung): 11.1 µM
TGI (NCI-H522 lung): 51.1 µM
GI50 (IGROV1 ovarian): 4.89 µM
TGI (IGROV1 ovarian): 35.9 µM
GI50 (MDA-MB-435): 1.72 µM
TGI (MDA-MB-435): 3.69 µM
